pIC50: −log10 of the molar value.
Experiments:
COLO 205 [1] = test: Cytotoxicity against human COLO 205 cells incubated for 48 hrs in presence of SN38 by SRB assay; type: functional, cell-based; conditions: COLO 205, 48 h
HT-29 [2] = test: Cytotoxicity against human HT-29 cells incubated for 48 hrs in presence of SN38 by SRB assay; type: functional, cell-based; conditions: HT-29, 48 h
HCT-116 [3] = test: Cytotoxicity against human HCT-116 cells incubated for 48 hrs in presence of SN38 by SRB assay; type: functional, cell-based; conditions: HCT-116, 48 h
[4] = Toxicity in AOM/DSS-induced orthotopic CRC BALB/c mouse model assessed as lesions in spleen at 13 mg/kg, iv administered once every 2 days for 2 weeks by H&E staining based analysis; type: organism-based; conditions: in vivo, 336 h
[5] = Antitumor activity against AOM/DSS-induced orthotopic CRC BALB/c mouse model assessed as reduction in tumor area at 13 mg/kg, iv administered once every 2 days for 2 weeks in presence of SN38 by dissecting microscopic analysis relative to control; type: functional, Colorectal cancer cell; parameters: scale not given: the % may be the effect or the level left
[6] = Toxicity in AOM/DSS-induced orthotopic CRC BALB/c mouse model assessed as lesions in stomach at 13 mg/kg, iv administered once every 2 days for 2 weeks by H&E staining based analysis; type: organism-based; conditions: in vivo, 336 h
[7] = Toxicity in AOM/DSS-induced orthotopic CRC BALB/c mouse model assessed as lesions in heart at 13 mg/kg, iv administered once every 2 days for 2 weeks by H&E staining based analysis; type: organism-based; conditions: in vivo, 336 h
[8] = Antitumor activity against AOM/DSS-induced orthotopic CRC BALB/c mouse model assessed as reduction in tumor area at 13 mg/kg, iv administered once every 2 days for 2 weeks by dissecting microscopic analysis relative to control; type: functional, Colorectal cancer cell; parameters: scale not given: the % may be the effect or the level left
[9] = Toxicity in AOM/DSS-induced orthotopic CRC BALB/c mouse model assessed as lesions in liver at 13 mg/kg, iv administered once every 2 days for 2 weeks by H&E staining based analysis; type: organism-based; conditions: in vivo, 336 h
[10] = Toxicity in AOM/DSS-induced orthotopic CRC BALB/c mouse model assessed as lesions in lung at 13 mg/kg, iv administered once every 2 days for 2 weeks by H&E staining based analysis; type: organism-based; conditions: in vivo, 336 h
COLO 205 [11] = test: Cytotoxicity against human COLO 205 cells incubated for 48 hrs by SRB assay; type: functional, cell-based; conditions: COLO 205, 48 h
[12] = Toxicity in AOM/DSS-induced orthotopic CRC BALB/c mouse model assessed as body weight loss at 13 mg/kg, iv administered once every 2 days for 2 weeks; type: organism-based; conditions: in vivo, 336 h
[13] = Toxicity in AOM/DSS-induced orthotopic CRC BALB/c mouse model assessed as lesions in kidney at 13 mg/kg, iv administered once every 2 days for 2 weeks by H&E staining based analysis; type: organism-based; conditions: in vivo, 336 h
[14] = Toxicity in AOM/DSS-induced orthotopic CRC BALB/c mouse model assessed as body weight loss at 14 mg/kg, ip administered every other day for 2 weeks in presence of Irinotecan; type: organism-based; conditions: in vivo, 336 h
HT-29 [15] = test: Cytotoxicity against human HT-29 cells incubated for 48 hrs by SRB assay; type: functional, cell-based; conditions: HT-29, 48 h
HCT-116 [16] = test: Cytotoxicity against human HCT-116 cells incubated for 48 hrs by SRB assay; type: functional, cell-based; conditions: HCT-116, 48 h
[17] = Stability in human plasma assessed as half life by RP-HPLC analysis; type: ADME, cell-free

SMILES | pIC50 (COLO 205 [1]) | pIC50 (HT-29 [2]) | pIC50 (HCT-116 [3]) | Activity [4] | Activity [5] | Activity [6] | Activity [7] | Activity [8] | Activity [9] | Activity [10] | pIC50 (COLO 205 [11]) | Activity [12] | Activity [13] | Activity [14] | pIC50 (HT-29 [15]) | pIC50 (HCT-116 [16]) | half-life [17]
O=C(CCc1ccc(O)cc1)c1c(O)cc(OCCOCCOCCS)cc1O | 6.82 | 6.44 | 7.25 | Non-Toxic | 55% | Non-Toxic | Non-Toxic | 35% | Non-Toxic | Non-Toxic | < 4.00 | Non-Toxic | Non-Toxic | Non-Toxic |  |  | 
CCc1c2c(nc3ccc(O)cc13)-c1cc3c(c(=O)n1C2)COC(=O)[C@]3(O)CC [7-ETHYL-10-HYDROXYCAMPTOTHECIN] |  |  |  |  |  |  |  |  |  |  | 9.12 |  |  |  | 6.37 | 7.26 | 
CCc1c2c(nc3ccc(OC(=O)OCCSSCCOCCOCCOc4cc(O)c(C(=O)CCc5ccc(O)cc5)c(O[C@@H]5O[C@H](CO)[C@@H](O)[C@H](O)[C@H]5O)c4)cc13)-c1cc3c(c(=O)n1C2)COC(=O)[C@]3(O)CC |  |  |  |  |  |  |  |  |  |  | 6.19 |  |  |  | 6.29 | 7.37 | 20 min
O=C(CCc1ccc(O)cc1)c1c(O)cc(O)cc1O[C@@H]1O[C@H](CO)[C@@H](O)[C@H](O)[C@H]1O [PHLORIZIN] |  |  |  |  |  |  |  |  |  |  | < 4.00 |  |  |  | < 4.00 | < 4.00 | 
